Measured values: patent US4677107A, “Anti-peptic ulcer agent” (Dainippon Pharmaceutical Co., Ltd., priority 1983, dated 1987)
Structures can show the parent of a compound that is named as a salt. Where two headings read alike, the source gives them in different places.

Key:
[1] = U.S. Pat. No. 3,542,785 and 3,668,207; cited from earlier work
[2] = U.S. Pat. No. 4,237,135 and U.K. Pat. No. 2,017,698; cited from earlier work
[3] = U.S. Pat. No. 3,542,785 and 3,668,207; cited from earlier work; remark: listed apart in the source
[4] = system: ulceration induced by pylorus-ligation; test: Effect on the ulceration induced by pylorus-ligation in rats; type: in vivo, male Wistar strain rats; conditions: for ED50: Rattus norvegicus, po, 30 minutes before ligation, rats, 18 hours, ulcer index 0 to 5, read-out: ED50 (dose required for 50% inhibition of ulcer index)
Method: [II] Effect on the ulceration induced by pylorus-ligation in rats: Male Wistar strain rats (weighing about 190 g) were fasted for 48 hours before experiment. The pylorus of each rat was ligated under ether anaesthesia according to the method of Shay et al. [cf. Shay, H., et al., Gastroenterology, 5, 43-61 (1945)]. Each of the animals was then allowed to stand abstained from food and water in a cage. After 18 hours, the animals were sacrificed under ether anaesthesia, and the stomachs were removed and cut open along the greater curvature. […] 4: marked ulcers more than two 5: perforated ulcer The ulcer index in drug treated groups was compared to that in the control group, and thereby, the inhibitory percentage was calculated and then ED50, i.e. the dose required for 50% inhibition of ulcer index, was determined by the usual graphic method. Drugs to be tested were suspended in 0.5% tragacanth solution and administered 30 minutes before the ligation. In the control group, a vehicle (0.5% tragacanth solution) was administered.

[5] = system: ulceration induced by exposure to stress (restraint and water immersion); test: Effect on the ulceration induced by exposure to stress (restraint and water immersion); type: in vivo, male Wistar strain rats; conditions: for ED50: Rattus norvegicus, po, 30 minutes before immersion, rats, read-out: ED50 (dose required for 50% inhibition of the ulcer index)
Method: [I] Effect on the ulceration induced by exposure to stress (restraint and water immersion): Male Wistar strain rats (weighing, about 200 g) were placed in a stress cage which served to immobilize the animals therein and then immersed in a water bath of 23° C. to the height of xiphoid of the animals according to the method of Takagi et al. [cf. Takagi, K. and Okabe, S., Japan. J. Pharmacol., 18, 9 (1968)]. After 20 hours, the animals were sacrificed and the stomach was removed. The stomach was inflated with 13 ml of saline and placed in 5% formalin solution for 5 minutes. After washing with saline, the stomach was cut open along the greater curvature and the length (mm) of each lesion in the glandular portion was measured using a dissecting microscope (×12). The sum of the length (mm) of each lesions in a stomach was indicated as an ulcer index. In case of reference experiment using butylscopolamine bromide, a photograph of the mucosal surface of stomach was taken after the stomach was treated in the same manner as described above. The photograph was magnified by nine times, and the sum of the area (mm^2) of each lesions in a stomach was indicated as an ulcer index. The ulcer index in drug treated groups was compared with that in control group, and thereby, inhibitory percentage was calculated and then ED50 value, i.e., the dose required for 50% inhibition of the ulcer index, was determined by the usual graphic method. Drugs to be tested were suspended in 0.5% tragacanth solution and administered orally 30 minutes before the immersion. In the control group, a vehicle (0.5% tragacanth solution) was administered.

gastric secretion = test: Effect on gastric secretion in rats (pylorus ligation, total acid content); type: in vivo, male Wistar strain rats; conditions: for ED50: Rattus norvegicus, po, 30 minutes before ligation, rats, 4 hours after ligation, read-out: ED50 (dose required for 50% reduction of acid content)
Method: [III] Effect on gastric secretion in rats: Male Wistar strain rats (weighing, about 200 g) were fasted for 24 hours before experiment. The pylorus was ligated under ether anaesthesia. Four hours after the ligation, the stomach was removed under ether anaesthesia. The gastric content was collected and centrifuged, and the secretory volume, pH and acid content of the supernatant were measured. The acid content was measured by titrating to pH 7.0 with 0.02N NaOH using pH meter (Hitachi Horiba, M-5). The total acid content of the drug treated groups was compared with that of the control group, and thereby, the reduction percentage of acid content was calculated and then ED50, i.e. the dose required for 50% reduction of acid content, was determined by the usual graphic method. Drugs to be tested were suspended in 0.5% tragacanth solution and administered orally 30 minutes before the ligation. In the control group, a vehicle (0.5% tragacanth solution) was administered.

[6] = system: contraction of ileum preparation by acetylcholine; test: Anti-acetylcholine action (isolated ileum contraction by acetylcholine); set-up: species or system male Hartley guinea-pigs; conditions: for IC50 (50% inhibition concentration), contraction of ileum by acetylcholine: acetylcholine chloride 2×10^-8 g/ml, drug added 2 minutes prior, 35° C.; for anti-acetylcholine activity (in words): isolated guinea-pig ileum
Method: [IV] Anti-acetylcholine action:
A piece of ileum, taken from male Hartley guinea-pigs (weighing 250-350 g) was suspended longitudinally in a bath containing Tyrode solution (20 ml) under constant bubbling of 95% oxygen and 5% carbon dioxide gas at 35° C. The contraction of the preparation by acetylcholine chloride (2×10^-8 g/ml) was recorded on an oscillograph (Nihonkoden, RJG-3004) via an isotonic transducer (Nihonkoden, TD-111S). Drugs to be tested (Compound A and Compound C) were added to the bath 2 minutes prior to the application of acetylcholine chloride. The average percent inhibition of the test Compound A against the contraction of ileum preparation by acetylcholine is shown in the accompanying FIG. 1. Based on the average percent inhibition on the graph, IC50, i.e. 50% inhibition concentration of the test compound, was calculated. […] IC50 of Compound C was calculated likewise. As a result, it was 1.9× 10^-6 g/ml.

pupil size = test: Mydriatic action in rats; type: in vivo, male Wistar strain rats; conditions: for Percent mydriasis: one hour after administration, 3 mm dilation = 100 percent
Description: [IV] Mydriatic action in rats:
Male Wistar strain rats (weighing, 150-200 g) were used. Pupil size of the animals was twice measured microscopically just before and one hour after administration of drugs at a distance of 30 cm from the source of a constant light (30 W fluorescent light) according to the method of Pulewka [cf. Arch. exp. Path. U. Pharmakol., 168, 307 (1932)]. Based on the change between the first measured pupil size and the second measured pupil size, mydriasis percentage was calculated provided that mydriasis percentage is supposed to be 100 percent in case of 3 mm dilation of pupil size in diameter. Drugs to be tested were suspended in 0.5% tragacanth solution and administered. In the control group, a vehicle (0.5% tragacanth solution) was administered.

[7] = ulcer index = sum of length (mm) of lesions
[8] = 1 mg/kg p.o., ulcer index = sum of length (mm) of lesions
[9] = 2 mg/kg p.o., ulcer index = sum of length (mm) of lesions
[10] = 5 mg/kg p.o., ulcer index = sum of length (mm) of lesions

SMILES | anti-inflammatory activity [1] | diuretic activity [3] | Ulcer index Inhibitory % ([4]; 50 mg/kg p.o.) [%] | Ulcer index Inhibitory % ([4]; 100 mg/kg p.o.) [%] | Ulcer index Inhibitory % ([4]; 200 mg/kg p.o.) [%] | ED50 [4] [mg/kg] | Total acid content Reduction % (gastric secretion; 20 mg/kg p.o.) [%] | Total acid content Reduction % (gastric secretion; 50 mg/kg p.o.) [%] | ED50 (gastric secretion) [mg/kg] | ED50 [5, 7] [mg/kg] | IC50 (50% inhibition concentration), contraction of ileum by acetylcholine [6] [µg/mL] | anti-acetylcholine activity (in words) [6] | Ulcer index Inhibitory % ([4]; 5 mg/kg p.o.) [%] | Ulcer index Inhibitory % ([4]; 10 mg/kg p.o.) [%] | Ulcer index Inhibitory % ([4]; 20 mg/kg p.o.) [%] | Ulcer index Inhibitory % [5, 8] [%] | Ulcer index Inhibitory % [5, 9] [%] | Ulcer index Inhibitory % [5, 10] [%] | Total acid content Reduction % (gastric secretion; 1 mg/kg p.o.) [%] | Total acid content Reduction % (gastric secretion; 2 mg/kg p.o.) [%] | other results
CN1CCN(c2cc(-c3ccccc3)c3cc(Cl)ccc3n2)CC1 [6-chloro-2-(4-methyl-1-piperazinyl)-4-phenylquinoline] | have anti-inflammatory activity | diuretic activity |  |  |  |  |  |  |  |  |  |  |  |  |  |  |  |  |  |  | anti-reserpine activity [2]: weak anti-reserpine activity
Clc1ccc2nc(N3CCN(c4ccccc4)CC3)cc(-c3ccccc3)c2c1 [6-chloro-2-(4-phenyl-1-piperazinyl)-4-phenylquinoline] | have anti-inflammatory activity | diuretic activity |  |  |  |  |  |  |  |  |  |  |  |  |  |  |  |  |  |  | 
CCCC[N+]1(C)[C@@H]2C[C@@H](OC(=O)[C@H](CO)c3ccccc3)C[C@H]1[C@@H]1O[C@@H]12 (stereo partly shown) [Butylscopolamine bromide, butylscopolamine bromide, reference compound] |  |  | 19.0 | 28.6 | 38.1 | > 200 | 44.3 | 71.0 | 25 |  |  |  |  |  |  |  |  |  |  |  | Ulcer index Inhibitory % ([5]; 20 mg/kg p.o., ulcer index = sum of area (mm^2) of lesions): -2.1%; Ulcer index Inhibitory % ([5]; 50 mg/kg p.o., ulcer index = sum of area (mm^2) of lesions): 44.1%; Ulcer index Inhibitory % ([5]; 100 mg/kg p.o., ulcer index = sum of area (mm^2) of lesions): 97.8%; ED50 ([5]; ulcer index = sum of area (mm^2) of lesions from photograph): 49.1 mg/kg; Total acid content Reduction % (gastric secretion; 100 mg/kg p.o.): 83.7%
CN/C(=N/CCSCc1nc[nH]c1C)NC#N [Cimetidine, reference compound] |  |  | 0 | 9.1 | 42.4 | 253 | 44.0 | 71.6 | 26.8 | 26.9 |  |  |  |  |  |  |  |  |  |  | Ulcer index Inhibitory % ([4]; 500 mg/kg p.o.): 75.8%; Ulcer index Inhibitory % ([5]; 20 mg/kg p.o., ulcer index = sum of length (mm) of lesions): 29.1%; Ulcer index Inhibitory % ([5]; 50 mg/kg p.o., ulcer index = sum of length (mm) of lesions): 75.0%; Ulcer index Inhibitory % ([5]; 100 mg/kg p.o., ulcer index = sum of length (mm) of lesions): 77.0%; Total acid content Reduction % (gastric secretion; 10 mg/kg p.o.): 9.4%
CCN1CCN(c2cc(-c3ccccc3)c3ccccc3n2)CC1 [Compound A, 2-(4-ethyl-1-piperazinyl)-4-phenylquinolinedihydrochloride] |  |  | 76.5 |  |  | 16 |  |  | 1.8 | 2.8 | 1.2 | extremely weak | 35.3 | 41.2 | 52.9 | 15.5 | 40.8 | 85.2 | 34.7 | 54.5 | Percent mydriasis (pupil size; 5 mg/kg p.o.): 4.0%; Percent mydriasis (pupil size; 10 mg/kg p.o.): 2.7%; Percent mydriasis (pupil size; 20 mg/kg p.o.): 2.7%; Percent mydriasis (pupil size; 50 mg/kg p.o.): 1.3%; Percent mydriasis (pupil size; 100 mg/kg p.o.): 2.6%; mydriatic action (in words) (pupil size; rats, up to 100 mg/kg): did entirely not show any mydriatic action even in a dose of 100 mg/kg; Ulcer index Inhibitory % ([5]; 10 mg/kg p.o., ulcer index = sum of length (mm) of lesions): 88.4%; Total acid content Reduction % (gastric secretion; 0.5 mg/kg p.o.): 18.2%; Total acid content Reduction % (gastric secretion; 5 mg/kg p.o.): 73.1%
O=C(O)/C=C\C(=O)O.c1ccc(-c2cc(N3CCNCC3)nc3ccccc23)cc1 [Compound C, 2-(1-piperazinyl)-4-phenylquinoline monomaleate] |  |  | 75.0 |  |  | 14 |  |  | 1.1 | 0.45 | 1.9 | extremely weak | 37.5 | 43.8 | 56.3 | 55.9 | 73.6 | 71.8 | 45.3 | 71.3 | Ulcer index Inhibitory % ([5]; 0.2 mg/kg p.o., ulcer index = sum of length (mm) of lesions): 45.8%; Ulcer index Inhibitory % ([5]; 0.5 mg/kg p.o., ulcer index = sum of length (mm) of lesions): 55.5%; Total acid content Reduction % (gastric secretion; 5 mg/kg p.o.): 86.3%
